Assay results published in ChEMBL document CHEMBL1201861, “Genomics of Drug Sensitity in Cancer screening data, Wellcome Trust Sanger Institute”.

The compounds below were run on COR-L88 (assay: cells). Conditions: Homo sapiens, COR-L88.
Assay type: functional, cell-based, Homo sapiens
Description: SANGER: Inhibition of human COR-L88 cell growth in a cell viability assay.

| Compound | IC50 |
| --- | --- |
| CC1(C)CCC(c2ccc(Cl)cc2)=C(CN2CCN(c3ccc(C(=O)NS(=O)(=O)c4ccc(N[C@H](CCN5CCOCC5)CSc5ccccc5)c(S(=O)(=O)C(F)(F)F)c4)cc3)CC2)C1 [NAVITOCLAX] | 365 nM |

The compounds below were run on DJM-1 (assay: cells). Conditions: Homo sapiens, DJM-1.
Assay type: functional, cell-based, Homo sapiens
Description: SANGER: Inhibition of human DJM-1 cell growth in a cell viability assay.

| Compound | IC50 |
| --- | --- |
| CC1(C)CCC(c2ccc(Cl)cc2)=C(CN2CCN(c3ccc(C(=O)NS(=O)(=O)c4ccc(N[C@H](CCN5CCOCC5)CSc5ccccc5)c(S(=O)(=O)C(F)(F)F)c4)cc3)CC2)C1 [NAVITOCLAX] | > 2000 nM |

What follows are compounds tested on DMS-114 (assay: cells). Conditions: Homo sapiens, DMS-114.
Assay type: functional, cell-based, Homo sapiens

| Compound | IC50 |
| --- | --- |
| CC1(C)CCC(c2ccc(Cl)cc2)=C(CN2CCN(c3ccc(C(=O)NS(=O)(=O)c4ccc(N[C@H](CCN5CCOCC5)CSc5ccccc5)c(S(=O)(=O)C(F)(F)F)c4)cc3)CC2)C1 [NAVITOCLAX] | > 2000 nM |

Each compound was assayed on EW-11 (assay: cells). Conditions: Homo sapiens, EW-11.
Assay type: functional, cell-based, Homo sapiens
Description: SANGER: Inhibition of human EW-11 cell growth in a cell viability assay.

| Compound | IC50 |
| --- | --- |
| CC1(C)CCC(c2ccc(Cl)cc2)=C(CN2CCN(c3ccc(C(=O)NS(=O)(=O)c4ccc(N[C@H](CCN5CCOCC5)CSc5ccccc5)c(S(=O)(=O)C(F)(F)F)c4)cc3)CC2)C1 [NAVITOCLAX] | 1960 nM |

The compounds below were run on EW-16 (assay: cells). Conditions: Homo sapiens, EW-16.
Assay type: functional, cell-based, Homo sapiens
Description: SANGER: Inhibition of human EW-16 cell growth in a cell viability assay.

| Compound | IC50 |
| --- | --- |
| CC1(C)CCC(c2ccc(Cl)cc2)=C(CN2CCN(c3ccc(C(=O)NS(=O)(=O)c4ccc(N[C@H](CCN5CCOCC5)CSc5ccccc5)c(S(=O)(=O)C(F)(F)F)c4)cc3)CC2)C1 [NAVITOCLAX] | 813 nM |

Each compound was assayed on GB-1 (assay: cells). Conditions: Homo sapiens, GB-1.
Assay type: functional, cell-based, Homo sapiens
Description: SANGER: Inhibition of human GB-1 cell growth in a cell viability assay.

| Compound | IC50 |
| --- | --- |
| CC1(C)CCC(c2ccc(Cl)cc2)=C(CN2CCN(c3ccc(C(=O)NS(=O)(=O)c4ccc(N[C@H](CCN5CCOCC5)CSc5ccccc5)c(S(=O)(=O)C(F)(F)F)c4)cc3)CC2)C1 [NAVITOCLAX] | > 2000 nM |

Each compound was assayed on GI-1 (assay: cells). Conditions: Homo sapiens, GI-1.
Assay type: functional, cell-based, Homo sapiens
Description: SANGER: Inhibition of human GI-1 cell growth in a cell viability assay.

| Compound | IC50 |
| --- | --- |
| CC1(C)CCC(c2ccc(Cl)cc2)=C(CN2CCN(c3ccc(C(=O)NS(=O)(=O)c4ccc(N[C@H](CCN5CCOCC5)CSc5ccccc5)c(S(=O)(=O)C(F)(F)F)c4)cc3)CC2)C1 [NAVITOCLAX] | > 2000 nM |

Each compound was assayed on GI-ME-N (assay: cells). Conditions: Homo sapiens, GI-ME-N.
Assay type: functional, cell-based, Homo sapiens
Description: SANGER: Inhibition of human GI-ME-N cell growth in a cell viability assay.

| Compound | IC50 |
| --- | --- |
| CC1(C)CCC(c2ccc(Cl)cc2)=C(CN2CCN(c3ccc(C(=O)NS(=O)(=O)c4ccc(N[C@H](CCN5CCOCC5)CSc5ccccc5)c(S(=O)(=O)C(F)(F)F)c4)cc3)CC2)C1 [NAVITOCLAX] | > 2000 nM |

These compounds were tested on GOTO (assay: cells). Conditions: Homo sapiens, GOTO.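 Also: growth inhibition of GOTO cells, read out by a cell viability assay.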
Assay type: functional, cell-based, Homo sapiens
Description: SANGER: Inhibition of human GOTO cell growth in a cell viability assay.

| Compound | IC50 |
| --- | --- |
| CC1(C)CCC(c2ccc(Cl)cc2)=C(CN2CCN(c3ccc(C(=O)NS(=O)(=O)c4ccc(N[C@H](CCN5CCOCC5)CSc5ccccc5)c(S(=O)(=O)C(F)(F)F)c4)cc3)CC2)C1 [NAVITOCLAX] | > 2000 nM |

Each compound was assayed on GR-ST (assay: cells). Conditions: Homo sapiens, GR-ST.
Assay type: functional, cell-based, Homo sapiens
Description: SANGER: Inhibition of human GR-ST cell growth in a cell viability assay.

| Compound | IC50 |
| --- | --- |
| CC1(C)CCC(c2ccc(Cl)cc2)=C(CN2CCN(c3ccc(C(=O)NS(=O)(=O)c4ccc(N[C@H](CCN5CCOCC5)CSc5ccccc5)c(S(=O)(=O)C(F)(F)F)c4)cc3)CC2)C1 [NAVITOCLAX] | > 2000 nM |

The compounds below were run on GT3TKB (assay: cells). Conditions: Homo sapiens, GT3TKB.
Assay type: functional, cell-based, Homo sapiens
Description: SANGER: Inhibition of human GT3TKB cell growth in a cell viability assay.

| Compound | IC50 |
| --- | --- |
| CC1(C)CCC(c2ccc(Cl)cc2)=C(CN2CCN(c3ccc(C(=O)NS(=O)(=O)c4ccc(N[C@H](CCN5CCOCC5)CSc5ccccc5)c(S(=O)(=O)C(F)(F)F)c4)cc3)CC2)C1 [NAVITOCLAX] | > 2000 nM |

What follows are compounds tested on HL-60 (assay: cells). Conditions: Homo sapiens, HL-60.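 Also: growth inhibition of human HL-60 cells, read out with a cell viability assay.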
Assay type: functional, cell-based, Homo sapiens
Description: SANGER: Inhibition of human HL-60 cell growth in a cell viability assay.

| Compound | IC50 |
| --- | --- |
| CC1(C)CCC(c2ccc(Cl)cc2)=C(CN2CCN(c3ccc(C(=O)NS(=O)(=O)c4ccc(N[C@H](CCN5CCOCC5)CSc5ccccc5)c(S(=O)(=O)C(F)(F)F)c4)cc3)CC2)C1 [NAVITOCLAX] | 29.1 nM |

The compounds below were run on KARPAS-45 (assay: cells). Conditions: Homo sapiens, KARPAS-45.
Assay type: functional, cell-based, Homo sapiens
Description: SANGER: Inhibition of human KARPAS-45 cell growth in a cell viability assay.

| Compound | IC50 |
| --- | --- |
| CC1(C)CCC(c2ccc(Cl)cc2)=C(CN2CCN(c3ccc(C(=O)NS(=O)(=O)c4ccc(N[C@H](CCN5CCOCC5)CSc5ccccc5)c(S(=O)(=O)C(F)(F)F)c4)cc3)CC2)C1 [NAVITOCLAX] | 78.1 nM |

What follows are compounds tested on KE-37 (assay: cells). Conditions: Homo sapiens, KE-37.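 Also: growth inhibition of KE-37 cells, read out with a cell viability assay.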
Assay type: functional, cell-based, Homo sapiens
Description: SANGER: Inhibition of human KE-37 cell growth in a cell viability assay.

| Compound | IC50 |
| --- | --- |
| CC1(C)CCC(c2ccc(Cl)cc2)=C(CN2CCN(c3ccc(C(=O)NS(=O)(=O)c4ccc(N[C@H](CCN5CCOCC5)CSc5ccccc5)c(S(=O)(=O)C(F)(F)F)c4)cc3)CC2)C1 [NAVITOCLAX] | 114 nM |

These compounds were tested on KGN (assay: cells). Conditions: Homo sapiens, KGN.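 Also: growth inhibition of KGN cells, read out with a cell viability assay.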
Assay type: functional, cell-based, Homo sapiens
Description: SANGER: Inhibition of human KGN cell growth in a cell viability assay.

| Compound | IC50 |
| --- | --- |
| CC1(C)CCC(c2ccc(Cl)cc2)=C(CN2CCN(c3ccc(C(=O)NS(=O)(=O)c4ccc(N[C@H](CCN5CCOCC5)CSc5ccccc5)c(S(=O)(=O)C(F)(F)F)c4)cc3)CC2)C1 [NAVITOCLAX] | > 2000 nM |

Each compound was assayed on KLE (assay: cells). Conditions: Homo sapiens.
Assay type: functional, cell-based
Description: SANGER: Inhibition of human KLE cell growth in a cell viability assay.

| Compound | IC50 |
| --- | --- |
| CC1(C)CCC(c2ccc(Cl)cc2)=C(CN2CCN(c3ccc(C(=O)NS(=O)(=O)c4ccc(N[C@H](CCN5CCOCC5)CSc5ccccc5)c(S(=O)(=O)C(F)(F)F)c4)cc3)CC2)C1 [NAVITOCLAX] | > 2000 nM |

These compounds were tested on KS-1 (assay: cells). Conditions: Homo sapiens.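 Also: growth inhibition of KS-1 cells, read out with a cell viability assay.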
Assay type: functional, cell-based
Description: SANGER: Inhibition of human KS-1 cell growth in a cell viability assay.

| Compound | IC50 |
| --- | --- |
| CC1(C)CCC(c2ccc(Cl)cc2)=C(CN2CCN(c3ccc(C(=O)NS(=O)(=O)c4ccc(N[C@H](CCN5CCOCC5)CSc5ccccc5)c(S(=O)(=O)C(F)(F)F)c4)cc3)CC2)C1 [NAVITOCLAX] | > 2000 nM |

The compounds below were run on LAN-6 (assay: cells). Conditions: Homo sapiens, LAN-6.
Assay type: functional, cell-based, Homo sapiens
Description: SANGER: Inhibition of human LAN-6 cell growth in a cell viability assay.

| Compound | IC50 |
| --- | --- |
| CC1(C)CCC(c2ccc(Cl)cc2)=C(CN2CCN(c3ccc(C(=O)NS(=O)(=O)c4ccc(N[C@H](CCN5CCOCC5)CSc5ccccc5)c(S(=O)(=O)C(F)(F)F)c4)cc3)CC2)C1 [NAVITOCLAX] | > 2000 nM |

Each compound was assayed on LB771-HNC (assay: cells). Conditions: Homo sapiens.
Assay type: functional, cell-based
Description: SANGER: Inhibition of human LB771-HNC cell growth in a cell viability assay.

| Compound | IC50 |
| --- | --- |
| CC1(C)CCC(c2ccc(Cl)cc2)=C(CN2CCN(c3ccc(C(=O)NS(=O)(=O)c4ccc(N[C@H](CCN5CCOCC5)CSc5ccccc5)c(S(=O)(=O)C(F)(F)F)c4)cc3)CC2)C1 [NAVITOCLAX] | > 2000 nM |

What follows are compounds tested on LS-1034 (assay: cells). Conditions: Homo sapiens, LS-1034.
Assay type: functional, cell-based, Homo sapiens
Description: SANGER: Inhibition of human LS-1034 cell growth in a cell viability assay.

| Compound | IC50 |
| --- | --- |
| CC1(C)CCC(c2ccc(Cl)cc2)=C(CN2CCN(c3ccc(C(=O)NS(=O)(=O)c4ccc(N[C@H](CCN5CCOCC5)CSc5ccccc5)c(S(=O)(=O)C(F)(F)F)c4)cc3)CC2)C1 [NAVITOCLAX] | > 2000 nM |

What follows are compounds tested on Lu-65 (assay: cells). Conditions: Homo sapiens, Lu-65.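 Also: growth inhibition of Lu-65 cancer cells, read out by a cell viability assay.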
Assay type: functional, cell-based, Homo sapiens
Description: SANGER: Inhibition of human LU-65 cell growth in a cell viability assay.

| Compound | IC50 |
| --- | --- |
| CC1(C)CCC(c2ccc(Cl)cc2)=C(CN2CCN(c3ccc(C(=O)NS(=O)(=O)c4ccc(N[C@H](CCN5CCOCC5)CSc5ccccc5)c(S(=O)(=O)C(F)(F)F)c4)cc3)CC2)C1 [NAVITOCLAX] | > 2000 nM |

Each compound was assayed on MC116 (assay: cells). Conditions: Homo sapiens, MC116.
Assay type: functional, cell-based, Homo sapiens
Description: SANGER: Inhibition of human MC116 cell growth in a cell viability assay.

| Compound | IC50 |
| --- | --- |
| CC1(C)CCC(c2ccc(Cl)cc2)=C(CN2CCN(c3ccc(C(=O)NS(=O)(=O)c4ccc(N[C@H](CCN5CCOCC5)CSc5ccccc5)c(S(=O)(=O)C(F)(F)F)c4)cc3)CC2)C1 [NAVITOCLAX] | > 2000 nM |

Each compound was assayed on MMAC-SF (assay: cells). Conditions: Homo sapiens.
Assay type: functional, cell-based
Description: SANGER: Inhibition of human MMAC-SF cell growth in a cell viability assay.

| Compound | IC50 |
| --- | --- |
| CC1(C)CCC(c2ccc(Cl)cc2)=C(CN2CCN(c3ccc(C(=O)NS(=O)(=O)c4ccc(N[C@H](CCN5CCOCC5)CSc5ccccc5)c(S(=O)(=O)C(F)(F)F)c4)cc3)CC2)C1 [NAVITOCLAX] | > 2000 nM |

The compounds below were run on MOLT-16 (assay: cells). Conditions: Homo sapiens, MOLT-16.
Assay type: functional, cell-based, Homo sapiens
Description: SANGER: Inhibition of human MOLT-16 cell growth in a cell viability assay.

| Compound | IC50 |
| --- | --- |
| CC1(C)CCC(c2ccc(Cl)cc2)=C(CN2CCN(c3ccc(C(=O)NS(=O)(=O)c4ccc(N[C@H](CCN5CCOCC5)CSc5ccccc5)c(S(=O)(=O)C(F)(F)F)c4)cc3)CC2)C1 [NAVITOCLAX] | 653 nM |

These compounds were tested on MPP-89 (assay: cells). Conditions: Homo sapiens, MPP-89.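 Also: growth inhibition of human MPP-89 cells, read out with a cell viability assay.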
Assay type: functional, cell-based, Homo sapiens
Description: SANGER: Inhibition of human MPP-89 cell growth in a cell viability assay.

| Compound | IC50 |
| --- | --- |
| CC1(C)CCC(c2ccc(Cl)cc2)=C(CN2CCN(c3ccc(C(=O)NS(=O)(=O)c4ccc(N[C@H](CCN5CCOCC5)CSc5ccccc5)c(S(=O)(=O)C(F)(F)F)c4)cc3)CC2)C1 [NAVITOCLAX] | > 2000 nM |
